The nature of data set [1]: Foam stability (foam half-life: time to recover one half of the original liquid volume from the foam). The class given is physicochemical. Here is the method:
(§1) For each mixture, foamability (foam volume) and foam stability were measured after one minute of foam generation with an Ultra Turrax system at 8200 rpm.
Also the foam stability was tested, by measuring the foam half-life, i.e. the amount of time it takes to recover one half of the original volume of liquid from a measured volume of foam.

A short description of data set [2]: Foamability (foam volume) after one minute of foam generation with an Ultra Turrax system at 8200 rpm. Type of data set: physicochemical. Here is the method: The "foamability", i.e. the volume of foam produced, and the foam stability were tested for a number of combinations of foaming agent and co-surfactant. Specifically, a number of foaming solutions were prepared containing various amounts of foaming agent and co-surfactant. The following foaming agents were tested: FA1 mixture of linear sodium octyl sulfate, sodium decyl sulfate, and sodium dodecyl sulfate as described in EP1328485. FA2 sodium n-decyl sulfate (Empicol® 0758, available from Huntsman) FA3 alkyl ether sulfate (Millifoam® H, available from Huntsman) FA4 STEOL ® DES32-IS (alkyl ether sulfate based surfactant, available from Stepan)
Each of the foaming agents was mixed with 5 wt%, 10 wt%, and 20 wt% (relative to the weight of foaming agent) of the following co-surfactants: CS1 lauramine oxide (dodecyldimethylamine oxide), available under the trade name Empigen® OB (Huntsman Performance Products) CS2 C8-10alkyl polyglucoside available under the trade name Glucopon 215® (comparative example)
as §1

Setting [3] is: co-surfactant mixed at 5, 10, 20 wt% with foaming agents.

Turning to `CCCCCCCCCCOS(=O)(=O)[O-].[Na+]` [FA2, sodium n-decyl sulfate], the “Half-life” value is recorded as 347 s in data set [1] (0 % CS1), 371 s in data set [1] (5 % CS1), 412 s in data set [1] (10 % CS1) and 504 s in data set [1] (20 % CS1). The “Half-life increase (%)” value turned out to be 0% in data set [1] (0 % CS1 (baseline)); 7% in data set [1] (5 % CS1, versus 0 % CS1); 11% in data set [1] (10 % CS1, versus 0 % CS1); 36% in data set [1] (20 % CS1, versus 0 % CS1). The “Foam volume increase (%)” value in data set [2] (0 % CS1 (baseline)) was 0%; in data set [2] (5 % CS1, versus 0 % CS1) it was 6%; in data set [2] (10 % CS1, versus 0 % CS1), 13%; in data set [2] (20 % CS1, versus 0 % CS1), 11%. The “Foam volume” value turned out to be 530 mL in data set [2] (0 % CS1 (wt% relative to total foaming agent and co-surfactant)); 562 mL in data set [2] (5 % CS1); 599 mL in data set [2] (10 % CS1); 588 mL in data set [2] (20 % CS1).
In the case of `CCCCCCCCCCCC[N+](C)(C)[O-]` [CS1, dodecyldimethylamine oxide], the “effect of co-surfactant on foam stability” value in data set [1] (setting [3]) is “highest foam stability improvement”. For the same molecule, the “effect of co-surfactant on foamability (foam volume) of the foaming agents” value in data set [2] (setting [3]) was “significantly increase”.

Source of the values: patent publication EP3414211B1, “PLASTER COMPOSITION” (priority 2016, dated 2017).
